Measurements as given in patent US7041687B2, “Indazole compounds useful as protein kinase inhibitors” (Vertex Pharmaceuticals Incorporated, priority 2002, dated 2006).

Target: T1, PDK-1 (Homo sapiens, UniProt O15530)
T1 sequence (O15530 1-556): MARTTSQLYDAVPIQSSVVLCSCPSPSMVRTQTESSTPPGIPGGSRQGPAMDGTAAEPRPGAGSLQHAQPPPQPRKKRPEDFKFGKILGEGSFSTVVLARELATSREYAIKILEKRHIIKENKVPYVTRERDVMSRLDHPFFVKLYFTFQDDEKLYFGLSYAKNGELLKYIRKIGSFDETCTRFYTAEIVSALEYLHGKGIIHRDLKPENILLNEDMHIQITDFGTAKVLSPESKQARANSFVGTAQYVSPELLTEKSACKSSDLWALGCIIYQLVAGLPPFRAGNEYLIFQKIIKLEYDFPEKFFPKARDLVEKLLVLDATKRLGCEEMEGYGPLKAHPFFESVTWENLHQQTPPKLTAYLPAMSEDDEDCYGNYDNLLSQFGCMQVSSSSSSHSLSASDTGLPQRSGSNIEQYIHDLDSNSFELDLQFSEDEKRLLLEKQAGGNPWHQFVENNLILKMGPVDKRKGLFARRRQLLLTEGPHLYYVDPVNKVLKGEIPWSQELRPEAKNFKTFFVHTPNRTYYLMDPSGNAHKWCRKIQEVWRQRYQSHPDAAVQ
Test: PDK-1 inhibition assay (radioactive-phosphate incorporation)
Assay type: biochemical
Conditions: 40 μM ATP, 65 μM PDKtide, 25 nM PDK-1, 30° C.

Ki [µM] | Compound
> 3 | O=C(Cc1ccc(Cl)c(Cl)c1)Nc1ccc2[nH]ncc2c1 [Compound I-16]
> 3 | CC(=O)Nc1cccc(C(CCN)C(=O)Nc2ccc3[nH]ncc3c2)c1 (stereo not shown) [Compound I-111]
1 to 3 | Cc1cccc(C(CCN)C(=O)Nc2ccc3[nH]ncc3c2)c1 (stereo not shown) [Compound I-112]
> 3 | NCCC(C(=O)Nc1ccc2[nH]ncc2c1)c1cccc(OCc2ccccc2)c1 (stereo not shown) [Compound I-114]
> 3 | NCCC(C(=O)Nc1cc(-c2ccccc2Cl)c2[nH]ncc2c1)c1ccc(Cl)c(Cl)c1 (stereo not shown) [Compound I-148]
< 1 | NCCC(C(=O)Nc1ccc2[nH]nc(NC(=O)c3cccs3)c2c1)c1cccnc1 (stereo not shown) [Compound I-272]
1 to 3 | NCCC(C(=O)Nc1ccc2[nH]ncc2c1)c1cccc(O)c1 (stereo not shown) [Compound I-1007]
> 3 | CC(=O)OC(C(=O)Nc1ccc2[nH]ncc2c1)c1ccccc1 (stereo not shown) [Compound I-1020]
> 3 | O=C(Nc1ccc2[nH]ncc2c1)C(CCNCc1ccccc1)c1ccccc1F (stereo not shown) [Compound I-1025]
< 1 | NCCC(C(=O)Nc1ccc2[nH]nc(-c3ccc(F)cc3)c2c1)c1ccccc1 (stereo not shown) [Compound I-1027]
< 1 | NCCC(C(=O)Nc1ccc2[nH]ncc2c1)c1ccccc1F (stereo not shown) [Compound I-1032]
1 to 3 | NCCC(C(=O)Nc1ccc2[nH]nc(C(=O)NCc3ccccc3)c2c1)c1ccccc1 (stereo not shown) [Compound I-1036]
> 3 | Cc1n[nH]c2ccc(NC(=O)C(CCN)c3ccco3)cc12 (stereo not shown) [Compound I-1037]
> 3 | NCCC(C(=O)Nc1ccc2[nH]nc(CNC(=O)c3ccccc3)c2c1)c1ccccc1 (stereo not shown) [Compound I-1042]

Further lines, the molecule ahead of its results:

Compound | Ki [µM]
CC(=O)O[C@@H](C(=O)Nc1ccc2[nH]ncc2c1)c1ccccc1 [Compound I-33] | > 3
NCCC(C(=O)Nc1ccc2[nH]nc(-c3cccc(-c4ccccc4)c3)c2c1)c1ccccc1 (stereo not shown) [Compound I-228] | 1 to 3
CC(C)c1cccc(-c2n[nH]c3ccc(NC(=O)C(CCN)c4ccccc4)cc23)c1 (stereo not shown) [Compound I-229] | > 3
Cc1cccc(-c2n[nH]c3ccc(NC(=O)C(CCN)c4ccccc4)cc23)c1 (stereo not shown) [Compound I-238] | < 1
NCCC(C(=O)Nc1ccc2[nH]nc(-c3cccc(OC(F)(F)F)c3)c2c1)c1ccccc1 (stereo not shown) [Compound I-239] | 1 to 3
NCCC(C(=O)Nc1ccc2[nH]nc(-c3cccc(C(N)=O)c3)c2c1)c1ccccc1 (stereo not shown) [Compound I-248] | < 1
NCCC(C(=O)Nc1ccc2[nH]nc(-c3ccc(C(N)=O)cc3)c2c1)c1ccccc1 (stereo not shown) [Compound I-262] | < 1
NCCC(C(=O)Nc1ccc2[nH]nc(-c3ccc(CCC(=O)O)cc3)c2c1)c1ccccc1 (stereo not shown) [Compound I-264] | < 1
NCCC(C(=O)Nc1ccc2[nH]nc(-c3ccc(Oc4ccccc4)cc3)c2c1)c1ccccc1 (stereo not shown) [Compound I-265] | < 1
O=C(CCC(C(=O)N1CCN(Cc2ccccc2)CC1)c1ccccc1)Nc1ccc2[nH]ncc2c1 (stereo not shown) [Compound I-1015] | > 3
COc1cccc(C(CCNCc2ccccc2)C(=O)Nc2ccc3[nH]nc(C)c3c2)c1 (stereo not shown) [Compound I-1016] | > 3
CNc1n[nH]c2ccc(NC(=O)C(CCN)c3ccccc3OC)cc12 (stereo not shown) [Compound I-1019] | > 3
Cc1n[nH]c2ccc(NC(=O)CCC(NCc3ccccc3)c3ccccc3F)cc12 (stereo not shown) [Compound I-1024] | > 3
COc1cccc(C(CCN)C(=O)Nc2ccc3[nH]nc(Nc4cccc(Cl)c4)c3c2)c1 (stereo not shown) [Compound I-1029] | > 3
COc1cccc(C(CCN)C(=O)Nc2ccc3[nH]nc(Nc4cccc(C(N)=O)c4)c3c2)c1 (stereo not shown) [Compound I-1030] | > 3
COc1cccc(C(CCN)C(=O)Nc2ccc3[nH]nc(Nc4cccc(C#N)c4)c3c2)c1 (stereo not shown) [Compound I-1031] | > 3
Cc1n[nH]c2ccc(NC(=O)C(CCN)c3ccsc3)cc12 (stereo not shown) [Compound I-1035] | < 1

Target: AKT-3 (Homo sapiens, UniProt Q9Y243)
Sequence (Q9Y243 whole entry): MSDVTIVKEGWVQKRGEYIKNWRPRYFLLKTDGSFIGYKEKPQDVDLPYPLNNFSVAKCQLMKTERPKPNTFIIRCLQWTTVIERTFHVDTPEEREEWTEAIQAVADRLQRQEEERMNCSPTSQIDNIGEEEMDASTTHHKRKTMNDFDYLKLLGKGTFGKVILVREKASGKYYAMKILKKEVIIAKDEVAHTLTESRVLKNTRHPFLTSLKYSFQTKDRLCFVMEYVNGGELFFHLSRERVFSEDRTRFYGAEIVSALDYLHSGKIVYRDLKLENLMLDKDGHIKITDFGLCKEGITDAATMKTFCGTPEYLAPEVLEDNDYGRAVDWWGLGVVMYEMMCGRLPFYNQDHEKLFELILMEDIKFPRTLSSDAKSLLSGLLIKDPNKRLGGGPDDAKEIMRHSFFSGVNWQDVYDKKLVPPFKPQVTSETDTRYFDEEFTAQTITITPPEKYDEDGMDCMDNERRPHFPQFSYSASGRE
Test: AKT-3 inhibition assay (standard coupled enzyme assay)
Assay type: biochemical
Conditions: 170 μM ATP, 200 μM peptide, 45 nM AKT, 30° C.

Ki [nM] | Compound
1000 to 10000 | O=C(Cc1ccc(Cl)cc1)Nc1ccc2[nH]ncc2c1 [Compound I-5]
1000 to 10000 | O=C(Cc1ccc(Cl)c(Cl)c1)Nc1ccc2[nH]ncc2c1 [Compound I-16]
1000 to 10000 | N[C@H](C(=O)Nc1ccc2[nH]ncc2c1)c1ccccc1 [Compound I-49]
1000 to 10000 | NC(C(=O)Nc1ccc2[nH]ncc2c1)c1ccc(Cl)cc1 (stereo not shown) [Compound I-50]
< 1000 | CNCCNC(C(=O)Nc1ccc2[nH]ncc2c1)c1cccc(Cl)c1 (stereo not shown) [Compound I-61]
< 1000 | CN(C)CCNC(C(=O)Nc1ccc2[nH]ncc2c1)c1cccc(Cl)c1 (stereo not shown) [Compound I-62]
1000 to 10000 | CCNCCNC(C(=O)Nc1ccc2[nH]ncc2c1)c1cccc(Cl)c1 (stereo not shown) [Compound I-63]
< 1000 | O=C(Nc1ccc2[nH]ncc2c1)C(NCCNCc1ccccc1)c1cccc(Cl)c1 (stereo not shown) [Compound I-64]
10000 to 20000 | O=C(Nc1ccc2[nH]ncc2c1)C(NCc1ccccn1)c1cccc(Cl)c1 (stereo not shown) [Compound I-65]
10000 to 20000 | O=C(Nc1ccc2[nH]ncc2c1)C(NCCc1ccccn1)c1cccc(Cl)c1 (stereo not shown) [Compound I-66]
1000 to 10000 | COc1ccc(C(NCCN)C(=O)Nc2ccc3[nH]ncc3c2)cc1Cl (stereo not shown) [Compound I-71]
< 1000 | NCC(=O)NC(C(=O)Nc1ccc2[nH]ncc2c1)c1cccc(Cl)c1 (stereo not shown) [Compound I-74, 2-(2-Amino-acetylamino)-2-(3-chloro-phenyl)-N-(1H-indazol-5-yl)-acetamide]
10000 to 20000 | CCc1n[nH]c2ccc(NC(=O)[C@H](O)c3cccc(Cl)c3)cc12 [Compound I-79]
10000 to 20000 | Nc1n[nH]c2ccc(NC(=O)Cc3cccc(Cl)c3)cc12 [Compound I-82]
1000 to 10000 | Nc1n[nH]c2ccc(NC(=O)Cc3ccc(Cl)c(Cl)c3)cc12 [Compound I-83]
10000 to 20000 | N[C@@H](Cc1ccc(Cl)c(Cl)c1)C(=O)Nc1ccc2[nH]ncc2c1 [Compound I-95]
1000 to 10000 | CC(=O)Nc1cccc(C(CCN)C(=O)Nc2ccc3[nH]ncc3c2)c1 (stereo not shown) [Compound I-111]

Ki [nM] | Compound
< 1000 | Cc1cccc(C(CCN)C(=O)Nc2ccc3[nH]ncc3c2)c1 (stereo not shown) [Compound I-112]
1000 to 10000 | NCCC(C(=O)Nc1ccc2[nH]ncc2c1)c1cccc(OCc2ccccc2)c1 (stereo not shown) [Compound I-114]
< 1000 | NCCC(C(=O)Nc1ccc2[nH]ncc2c1)c1cccc(O)c1 (stereo not shown) [Compound I-115]
10000 to 20000 | NCC(C(=O)Nc1cc(-c2ccccc2)c2[nH]ncc2c1)c1ccc(Cl)c(Cl)c1 (stereo not shown) [Compound I-146]
1000 to 10000 | COC(=O)NCCC(C(=O)Nc1ccc2[nH]ncc2c1)c1ccc(Cl)c(Cl)c1 (stereo not shown) [Compound I-151]
1000 to 10000 | CNC(=O)NCCC(C(=O)Nc1ccc2[nH]ncc2c1)c1ccc(Cl)c(Cl)c1 (stereo not shown) [Compound I-152]
1000 to 10000 | NCCC(C(=O)Nc1ccc2[nH]nc(NC(=O)Cc3ccccc3)c2c1)c1ccc(Cl)c(Cl)c1 (stereo not shown) [Compound I-192]
< 1000 | NCCC(C(=O)Nc1ccc2[nH]nc(NC(=O)c3cccc(CN4CCCCC4)c3)c2c1)c1ccc(Cl)c(Cl)c1 (stereo not shown) [Compound I-214]
< 1000 | NCCC(C(=O)Nc1ccc2[nH]nc(NC(=O)c3cccc(CN4CCOCC4)c3)c2c1)c1ccc(Cl)c(Cl)c1 (stereo not shown) [Compound I-215]
< 1000 | CCN(CC)Cc1cccc(C(=O)Nc2n[nH]c3ccc(NC(=O)C(CCN)c4ccc(Cl)c(Cl)c4)cc23)c1 (stereo not shown) [Compound I-216]
< 1000 | NCCC(C(=O)Nc1ccc2[nH]nc(NC(=O)c3cccc(CN4CCNCC4)c3)c2c1)c1ccc(Cl)c(Cl)c1 (stereo not shown) [Compound I-218]
< 1000 | NCCC(C(=O)Nc1ccc2[nH]nc(NC(=O)c3cccc(SC(F)F)c3)c2c1)c1ccc(Cl)c(Cl)c1 (stereo not shown) [Compound I-219]
< 1000 | CS(=O)(=O)c1cccc(C(=O)Nc2n[nH]c3ccc(NC(=O)C(CCN)c4ccc(Cl)c(Cl)c4)cc23)c1 (stereo not shown) [Compound I-221]
< 1000 | NCCC(C(=O)Nc1ccc2[nH]nc(-c3cccc(-c4ccccc4)c3)c2c1)c1ccc(Cl)c(Cl)c1 (stereo not shown) [Compound I-223]
< 1000 | NCCC(C(=O)Nc1ccc2[nH]nc(-c3cccc(C(F)(F)F)c3)c2c1)c1ccc(Cl)c(Cl)c1 (stereo not shown) [Compound I-224]
< 1000 | NCCC(C(=O)Nc1ccc2[nH]nc(-c3cccc(OC(F)(F)F)c3)c2c1)c1ccc(Cl)c(Cl)c1 (stereo not shown) [Compound I-256]

The remaining lines, values behind:

Compound | Ki [nM]
O=C(Nc1ccc2[nH]ncc2c1)C(O)c1ccc(Br)cc1 (stereo not shown) [Compound I-37] | 10000 to 20000
NC(C(=O)Nc1ccc2[nH]ncc2c1)c1cccc(C(F)(F)F)c1 (stereo not shown) [Compound I-53] | 1000 to 10000
NC(C(=O)Nc1ccc2[nH]ncc2c1)c1ccc2ccccc2c1 (stereo not shown) [Compound I-58] | 1000 to 10000
NCCCNC(C(=O)Nc1ccc2[nH]ncc2c1)c1cccc(Cl)c1 (stereo not shown) [Compound I-60] | < 1000
CCCNCCCNC(C(=O)Nc1ccc2[nH]ncc2c1)c1cccc(Cl)c1 (stereo not shown) [Compound I-68] | 1000 to 10000
NCCNC(C(=O)Nc1ccc2[nH]ncc2c1)c1ccc(Cl)cc1 (stereo not shown) [Compound I-70] | < 1000
NCCNC(C(=O)Nc1ccc2[nH]ncc2c1)c1ccc(Oc2ccccc2)c(Cl)c1 (stereo not shown) [Compound I-72] | 1000 to 10000
COc1ccc(Br)cc1CC(=O)Nc1ccc2[nH]ncc2c1 [Compound I-94] | 10000 to 20000
NCC(C(=O)Nc1ccc2[nH]ncc2c1)c1cccc(Cl)c1 (stereo not shown) [Compound I-157] | 1000 to 10000
NCCC(C(=O)Nc1ccc2[nH]nc(NC(=O)c3cccc(Cn4ccnc4)c3)c2c1)c1ccc(Cl)c(Cl)c1 (stereo not shown) [Compound I-217] | < 1000
CC(=O)c1cccc(C(=O)Nc2n[nH]c3ccc(NC(=O)C(CCN)c4ccc(Cl)c(Cl)c4)cc23)c1 (stereo not shown) [Compound I-220] | < 1000
CC(=O)c1n[nH]c2ccc(NC(=O)C(CN)c3ccc(Cl)c(Cl)c3)cc12 (stereo not shown) [Compound I-255] | 1000 to 10000
